We go through 11 molecules from patent US10125137B2, “Benzofurans substituted with bicyclic secondary benzamide as HCV inhibitors” (BRISTOL-MYERS SQUIBB COMPANY, priority 2015, dated 2018).

Data set [1] relates to genotype 1b (Con-1) HCV replicon. As to the kind of experiment: HCV Replicon Luciferase Assay. Format: cell-based. The conditions noted are these: Hepatitis C virus, 72 h, genotype 1b HCV replicon, Huh-7, Renilla luciferase, 3 days. As for the experimental part:
Cell Lines. The cell lines used to evaluate compounds consist of a human hepatocyte derived cell line (Huh-7) that constitutively expresses a genotype 1b (Con-1) HCV replicon or a genotype 1b (Con-1) HCV replicon with an asparagine replacing the cysteine at amino acid 316, or a genotype 2a (JFH-1) replicon, containing a Renilla luciferase reporter gene. These cells were maintained in Dulbecco's modified Eagle medium (DMEM) containing 10% FBS, 100 U/mL penicillin/streptomycin and 1.0 mg/mL G418.
HCV Replicon Luciferase Assay. To evaluate compound efficacy, titrated compounds were transferred to sterile 384-well tissue culture treated plates, and the plates were seeded with HCV replicon cells (50 μL at a density of 2.4×10^3 cells/well) in DMEM containing 4% FBS (final DMSO concentration at 0.5%). After 3 days incubation at 37° C., cells were analyzed for Renilla Luciferase activity using the EnduRen substrate (Promega cat #E6485) according to the manufacturer's directions. Briefly, the EnduRen substrate was diluted in DMEM and then added to the plates to a final concentration of 7.5 μM. The plates were incubated for at least 1 h at 37° C. then read on a Viewlux Imager (PerkinElmer) using a luminescence program. The 50% effective concentration (EC50) was calculated using the four-parameter logistic formula noted above.
A general note: In antiviral work, replicon cells carry a viral genome segment that copies itself.

For data set [2], the system named is HCV. The conditions noted are these: single agent: transient decrease then rebound; cited from earlier work.
For data set [3] the following is noted: extended dosing of combination regimens with interferon and ribavirin; cited from earlier work.

Where two headings read alike, the source gives them in different places.

On to `CNC(=O)c1c(-c2ccc(F)cc2)oc2cc(N(CCF)S(C)(=O)=O)c(-c3cccc(C(=O)N4CCn5c(nnc5C(F)(F)F)C4)c3)cc12` [Compound 1002], for which the EC50 (commonly the midpoint of the concentration-response curve) in data set [1] (read-out: EC50 1b (class)) lay in the range of 0.1 to 1 µM.

With `CNC(=O)c1c(-c2ccc(F)cc2)oc2cc(N(CCF)S(C)(=O)=O)c(-c3cccc(C(=O)N4CCC5CC54)c3)cc12` (stereo not drawn) [Compound 1006], the concentration for a half-maximal effect (EC50) in data set [1] (read-out: EC50 1b (class)) was below 0.1 µM.

Consider `CNC(=O)c1c(-c2ccc(F)cc2)oc2cc(N(CCF)S(C)(=O)=O)c(-c3cccc(C(=O)N4CCC5(CCN(C(=O)OC(C)(C)C)C5)C4)c3)cc12` (stereo not drawn) [Compound 1008], for which the EC50 was below 0.1 µM in data set [1] (read-out: EC50 1b (class)) and 0.0964 µM in data set [1] (read-out: EC50 (uM) 1b).

For `CNC(=O)c1c(-c2ccc(F)cc2)oc2cc(N(CCF)S(C)(=O)=O)c(-c3cccc(C(=O)N4CCn5cc(C(F)(F)F)nc5C4)c3)cc12` [Compound 1001], the concentration for a half-maximal effect (EC50) in data set [1] (read-out: EC50 1b (class)) is below 0.1 µM; in data set [1] (read-out: EC50 (uM) 1b), 0.0349 µM.

As for `CNC(=O)c1c(-c2ccc(F)cc2)oc2cc(N(CCF)S(C)(=O)=O)c(-c3cccc(C(=O)N4[C@H](C(N)=O)C[C@@H]5C[C@@H]54)c3)cc12` [Compound 1007], in data set [1] (read-out: EC50 1b (class)), the EC50 is above 1 µM.

Take `CNC(=O)c1c(-c2ccc(F)cc2)oc2cc(N(CCF)S(C)(=O)=O)c(-c3cccc(C(=O)N4CCc5nc[nH]c5C4)c3)cc12` [Compound 1003]: in data set [1] (read-out: EC50 1b (class)), the EC50 is above 1 µM.

For `CNC(=O)c1c(-c2ccc(F)cc2)oc2cc(N(CCF)S(C)(=O)=O)c(-c3cccc(C(=O)N4CC5CCN(C(=O)OC(C)(C)C)C5C4)c3)cc12` (stereo not drawn) [Compound 1009], the EC50 in data set [1] (read-out: EC50 1b (class)) was 0.1 to 1 µM.

Take `CNC(=O)c1c(-c2ccc(F)cc2)oc2cc(N(CCF)S(C)(=O)=O)c(-c3cccc(C(=O)N4CC5CCN(C(=O)OC(C)(C)C)CC5C4)c3)cc12` (stereo not drawn) [Compound 1010]: the concentration for a half-maximal effect (EC50) in data set [1] (read-out: EC50 1b (class)) is below 0.1 µM.

As for `CNC(=O)c1c(-c2ccc(F)cc2)oc2cc(N(CCF)S(C)(=O)=O)c(-c3cccc(C(=O)N4CCn5cccc5C4c4cccnc4)c3)cc12` (stereo not drawn) [Compound 1005], the 50% effective concentration (EC50) in data set [1] (read-out: EC50 1b (class)) was below 0.1 µM.

`CNC(=O)c1c(-c2ccc(F)cc2)oc2cc(N(CCO)S(C)(=O)=O)c(C3CC3)cc12` [HCV-796]: the “HCV RNA levels in patients” value in data set [2] is given as “reduce HCV RNA levels”. Moreover, the hepatic toxicity result in data set [3] is reported as “hepatic toxicity”.

Turning to `CNC(=O)c1c(-c2ccc(F)cc2)oc2cc(N(CCF)S(C)(=O)=O)c(-c3cccc(C(=O)N4CCc5[nH]ncc5C4)c3)cc12` [Compound 1004], the EC50 was 0.1 to 1 µM in data set [1] (read-out: EC50 1b (class)) and 0.975 µM in data set [1] (read-out: EC50 (uM) 1b).
